pIC50: −log10 of the molar value.
How the values were obtained:
[1] = biological target: Casein kinase I isoform epsilon (Homo sapiens, UniProt P49674)
[2] = biological target: Dual specificity protein kinase CLK2 (Homo sapiens, UniProt P49760)
[3] = biological target: T1, Dual specificity tyrosine-phosphorylation-regulated kinase 4 (Homo sapiens, UniProt Q9NR20)
T1 sequence (Q9NR20 whole entry): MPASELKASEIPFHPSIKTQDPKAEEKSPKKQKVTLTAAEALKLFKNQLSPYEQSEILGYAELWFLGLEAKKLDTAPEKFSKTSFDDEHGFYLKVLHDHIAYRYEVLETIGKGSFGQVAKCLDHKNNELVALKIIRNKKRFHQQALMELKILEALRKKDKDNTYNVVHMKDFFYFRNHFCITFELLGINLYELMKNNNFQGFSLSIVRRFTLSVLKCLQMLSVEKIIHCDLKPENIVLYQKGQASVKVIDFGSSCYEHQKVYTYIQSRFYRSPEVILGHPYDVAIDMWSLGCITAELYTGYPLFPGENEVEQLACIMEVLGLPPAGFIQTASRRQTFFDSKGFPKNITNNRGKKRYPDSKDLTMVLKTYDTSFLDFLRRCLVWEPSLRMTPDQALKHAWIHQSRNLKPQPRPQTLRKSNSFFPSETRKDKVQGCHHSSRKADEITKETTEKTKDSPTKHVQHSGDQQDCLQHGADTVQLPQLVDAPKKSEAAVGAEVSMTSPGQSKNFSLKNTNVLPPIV

[4] = biological target: Dual specificity protein kinase CLK3 (Homo sapiens, UniProt P49761); assay type: cell-based, Sf9
Sequence of Dual specificity protein kinase CLK3 (P49761 whole entry): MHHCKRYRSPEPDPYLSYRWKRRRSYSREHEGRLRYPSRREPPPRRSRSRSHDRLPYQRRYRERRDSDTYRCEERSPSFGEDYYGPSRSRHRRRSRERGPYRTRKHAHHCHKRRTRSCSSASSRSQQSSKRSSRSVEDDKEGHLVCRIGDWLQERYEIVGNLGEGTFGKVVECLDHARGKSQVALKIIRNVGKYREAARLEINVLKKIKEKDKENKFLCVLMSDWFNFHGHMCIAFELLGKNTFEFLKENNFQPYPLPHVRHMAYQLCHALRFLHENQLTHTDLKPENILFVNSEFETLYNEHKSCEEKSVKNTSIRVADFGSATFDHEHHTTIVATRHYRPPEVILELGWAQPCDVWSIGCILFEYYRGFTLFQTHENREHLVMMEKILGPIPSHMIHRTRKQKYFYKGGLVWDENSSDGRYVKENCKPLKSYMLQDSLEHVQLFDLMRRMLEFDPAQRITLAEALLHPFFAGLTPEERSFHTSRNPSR

[5] = biological target: Glycogen synthase kinase-3 beta (Homo sapiens, UniProt P49841); assay type: cell-based, Sf9
Sequence of Glycogen synthase kinase-3 beta (P49841 whole entry): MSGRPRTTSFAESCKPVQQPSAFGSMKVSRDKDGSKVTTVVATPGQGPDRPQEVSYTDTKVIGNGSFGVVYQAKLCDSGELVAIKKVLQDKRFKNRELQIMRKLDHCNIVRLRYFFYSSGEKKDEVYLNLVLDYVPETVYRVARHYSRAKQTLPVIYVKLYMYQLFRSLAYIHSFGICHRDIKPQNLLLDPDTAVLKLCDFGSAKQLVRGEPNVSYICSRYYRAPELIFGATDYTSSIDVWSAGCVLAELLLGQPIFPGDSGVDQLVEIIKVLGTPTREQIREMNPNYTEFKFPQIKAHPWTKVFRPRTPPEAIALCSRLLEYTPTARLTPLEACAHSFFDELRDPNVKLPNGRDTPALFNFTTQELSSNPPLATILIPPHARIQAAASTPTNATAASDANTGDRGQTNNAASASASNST

[6] = biological target: Cyclin-dependent kinase 5/CDK5 activator 1 (Homo sapiens, UniProt Q00535); assay type: cell-based, Sf9
Sequence of Cyclin-dependent kinase 5/CDK5 activator 1 (Q00535 whole entry): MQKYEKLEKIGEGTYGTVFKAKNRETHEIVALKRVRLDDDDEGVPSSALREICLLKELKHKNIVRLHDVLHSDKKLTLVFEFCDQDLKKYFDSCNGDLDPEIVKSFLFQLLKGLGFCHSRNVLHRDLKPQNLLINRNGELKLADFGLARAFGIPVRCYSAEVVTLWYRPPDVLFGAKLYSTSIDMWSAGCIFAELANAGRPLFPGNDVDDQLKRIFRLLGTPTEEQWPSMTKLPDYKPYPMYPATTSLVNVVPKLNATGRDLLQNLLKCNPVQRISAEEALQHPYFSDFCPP
Sequence of Cyclin-dependent kinase 5/CDK5 activator 1 (Q15078 whole entry, further chain): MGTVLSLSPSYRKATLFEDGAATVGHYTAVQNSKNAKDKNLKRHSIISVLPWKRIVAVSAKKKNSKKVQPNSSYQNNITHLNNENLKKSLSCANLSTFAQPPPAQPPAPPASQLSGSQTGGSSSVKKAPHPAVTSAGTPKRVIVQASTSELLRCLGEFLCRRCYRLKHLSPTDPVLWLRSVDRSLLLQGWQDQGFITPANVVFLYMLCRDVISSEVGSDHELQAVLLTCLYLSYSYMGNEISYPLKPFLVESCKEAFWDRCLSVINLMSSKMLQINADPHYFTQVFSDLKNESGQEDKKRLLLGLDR

[7] = biological target: T2, Dual specificity tyrosine-phosphorylation-regulated kinase 2 (Homo sapiens, UniProt Q92630)
T2 sequence (Q92630 whole entry): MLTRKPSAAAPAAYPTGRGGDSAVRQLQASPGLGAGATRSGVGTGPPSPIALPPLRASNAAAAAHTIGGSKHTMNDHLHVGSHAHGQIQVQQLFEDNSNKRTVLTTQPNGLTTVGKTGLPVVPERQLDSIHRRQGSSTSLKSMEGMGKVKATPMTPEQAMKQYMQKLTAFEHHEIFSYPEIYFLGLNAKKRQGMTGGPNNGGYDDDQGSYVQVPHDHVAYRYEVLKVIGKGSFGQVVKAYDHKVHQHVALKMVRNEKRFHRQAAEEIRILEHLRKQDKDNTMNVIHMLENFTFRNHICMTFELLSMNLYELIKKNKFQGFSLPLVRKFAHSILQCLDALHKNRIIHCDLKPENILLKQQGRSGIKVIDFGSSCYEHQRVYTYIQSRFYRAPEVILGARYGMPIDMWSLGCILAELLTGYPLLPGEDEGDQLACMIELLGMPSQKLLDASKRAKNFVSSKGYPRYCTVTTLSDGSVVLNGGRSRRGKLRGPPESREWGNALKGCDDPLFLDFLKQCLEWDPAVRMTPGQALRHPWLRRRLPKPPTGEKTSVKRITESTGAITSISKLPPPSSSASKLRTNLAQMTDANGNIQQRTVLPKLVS

Sequence of Dual specificity protein kinase CLK2 (P49760 whole entry): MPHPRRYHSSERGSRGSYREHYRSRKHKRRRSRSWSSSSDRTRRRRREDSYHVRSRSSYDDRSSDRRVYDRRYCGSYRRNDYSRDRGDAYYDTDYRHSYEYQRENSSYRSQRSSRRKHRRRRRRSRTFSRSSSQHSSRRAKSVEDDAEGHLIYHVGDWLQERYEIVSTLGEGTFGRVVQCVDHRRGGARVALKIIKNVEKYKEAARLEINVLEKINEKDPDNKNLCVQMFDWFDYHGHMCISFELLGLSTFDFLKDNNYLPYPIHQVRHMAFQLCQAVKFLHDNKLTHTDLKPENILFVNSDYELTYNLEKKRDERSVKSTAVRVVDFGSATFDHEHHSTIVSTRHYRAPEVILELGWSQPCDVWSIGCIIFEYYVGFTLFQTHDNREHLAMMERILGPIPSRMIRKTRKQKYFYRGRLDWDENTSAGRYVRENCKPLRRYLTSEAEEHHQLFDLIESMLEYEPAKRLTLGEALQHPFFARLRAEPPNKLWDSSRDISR
Sequence of Casein kinase I isoform epsilon (P49674 whole entry, canonical isoform): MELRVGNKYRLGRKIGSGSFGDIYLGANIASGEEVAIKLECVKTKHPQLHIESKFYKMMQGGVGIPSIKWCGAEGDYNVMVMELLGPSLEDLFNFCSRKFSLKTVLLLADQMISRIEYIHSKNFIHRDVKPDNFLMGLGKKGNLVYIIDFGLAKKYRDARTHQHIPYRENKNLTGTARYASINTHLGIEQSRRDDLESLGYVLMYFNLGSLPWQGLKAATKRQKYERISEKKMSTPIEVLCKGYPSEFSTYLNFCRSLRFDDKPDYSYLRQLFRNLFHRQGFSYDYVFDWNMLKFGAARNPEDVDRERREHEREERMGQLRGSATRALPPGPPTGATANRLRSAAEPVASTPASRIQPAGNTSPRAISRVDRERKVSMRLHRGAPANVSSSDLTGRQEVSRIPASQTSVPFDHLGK

Compound	pIC50 [1]	pIC50 [2]	pIC50 [3]	pIC50 [4]	pIC50 [5]	pIC50 [6]	pIC50 [7]
O=C1NC(N[C@@H]2CCOC2)=N/C1=C\c1ccc2ncsc2c1	< 5.00	6.39	5.56	6.13	< 5.00	< 5.00	–
NC[C@@H](NC1=N/C(=C\c2ccc3ncsc3c2)C(=O)N1)c1ccccc1	–	–	–	–	6.99	5.60	–
O=C1NC(Nc2cccnc2)=N/C1=C\c1ccc2ncsc2c1	< 5.00	7.08	5.88	6.70	< 5.00	< 5.00	–
O=C1NC(N[C@H]2CCOC2)=N/C1=C\c1ccc2ncsc2c1	< 5.00	6.40	5.98	6.39	5.18	< 5.00	–
CN(C)C12CC3CC(CC(NC4=N/C(=C\c5ccc6ncsc6c5)C(=O)N4)(C3)C1)C2	5.83	–	6.39	5.74	5.87	5.30	–
NCC(NC1=N/C(=C\c2ccc3ncsc3c2)C(=O)N1)c1ccccc1 (centres undefined)	–	–	–	–	6.21	6.03	–
O=C1NC(N[C@@H]2CCC[C@@H]2O)=N/C1=C\c1ccc2ncsc2c1 (racemic)	< 5.00	–	6.35	6.27	< 5.00	< 5.00	5.92
O=C1NC(NC2CCCCC(F)(F)C2)=N/C1=C\c1ccc2ncsc2c1 (racemic)	6.38	–	6.76	–	5.87	6.22	–
NC[C@H](NC1=N/C(=C\c2ccc3ncsc3c2)C(=O)N1)c1ccccc1	–	–	–	–	5.95	5.63	–
O=C1NC(NC23CC4CC(CC(F)(C4)C2)C3)=N/C1=C\c1ccc2ncsc2c1	6.21	–	–	6.71	6.77	6.84	–
CNCC(NC1=N/C(=C\c2ccc3ncsc3c2)C(=O)N1)c1ccccc1 (racemic)	5.20	7.52	6.56	–	6.64	5.70	–
CS(=O)(=O)NC12CC3CC(CC(NC4=N/C(=C\c5ccc6ncsc6c5)C(=O)N4)(C3)C1)C2	5.24	–	6.63	5.99	6.29	5.81	–
CN1CCN(c2ccc(NC3=N/C(=C\c4ccc5ncsc5c4)C(=O)N3)cc2)CC1	5.47	7.55	6.61	5.98	6.00	< 5.00	–
O=C1NC(NC2CCC(F)(F)CC2)=N/C1=C\c1ccc2ncsc2c1	< 5.00	–	5.70	6.33	< 5.00	< 5.00	6.34
COc1nc(C)ccc1NC1=N/C(=C\c2ccc3ncsc3c2)C(=O)N1	< 5.00	–	–	< 5.00	5.05	< 5.00	5.73
CC(=O)NC12CC3CC(C1)CC(NC1=N/C(=C\c4ccc5ncsc5c4)C(=O)N1)(C3)C2	5.92	–	6.58	6.21	6.18	6.21	–
O=C1NC(NC23CC4CC(CC(NC(=O)C5CC5)(C4)C2)C3)=N/C1=C\c1ccc2ncsc2c1	5.64	–	6.57	6.18	6.44	5.84	–
O=C1NC(N[C@@H]2CCC[C@H]2O)=N/C1=C\c1ccc2ncsc2c1 (racemic)	< 5.00	–	6.26	6.65	< 5.00	< 5.00	6.33
O=C1NC(NC23CC4CC(CC2C4)C3)=N/C1=C\c1ccc2ncsc2c1	5.61	–	–	6.94	6.07	5.49	–
COC12CC3CC(CC(NC4=N/C(=C\c5ccc6ncsc6c5)C(=O)N4)(C3)C1)C2	5.75	–	6.55	6.55	6.34	6.52	–
O=C1NC(NC23CC4CC(CC(O)(C4)C2)C3)=N/C1=C\c1ccc2ncsc2c1	5.96	–	–	6.67	6.50	6.48	–
